Like-named read-outs stand apart in the source and are kept apart here.
Tests used:
[1] = Metabolic stability assay, human microsomes; type: in vitro ADME; conditions: for half-life at 10 µM: both sexes
in vitro [2] = type: in vitro ADME, human
[3] = Metabolic stability assay, CD-1 mouse microsomes; type: in vitro ADME; conditions: for half-life at 10 µM: both sexes
[4] = Metabolic stability assay, rat microsomes (values in parentheses); type: in vitro ADME; conditions: value in parentheses; for half-life at 10 µM: read-out: Metabolic Stability T½ [min] (rat)
in vitro [5] = type: in vitro ADME, mouse
Method: Example compounds were dissolved in DMSO/H2O 90:10 to a final concentration of 10 mM for plasma stability determination and metabolic stability determination.
Human plasma (3-5 donors, Blutspendedienst SRK, Basel) and CD-1 mouse plasma (mixed gender pool >50 animals, Innovative Research, CA, USA) are both sodium citrate stabilized. The assay is performed in triplicates at 10 μM compound concentration and 37° C. Samples are taken at 0, 15, 60, and 240 minutes and stopped by precipitation with 2 volumes of acetonitrile. The supernatant is collected, evaporated and reconstituted in a 5% acetonitrile solution to be analyzed by HPLC/MS/MS. The resulting peak area counts are expressed in percent of the 0 value and used to determine the endpoint stability in % and the half life in minutes. In order to monitor assay integrity the degradation of propantheline is assayed with every experimental set.

[6] = Pharmacokinetic study after single i.v. and p.o. administration in male SD rats; type: in vivo; conditions: rat; for half-life: read-out: T1/2 (terminal) (converted)
Method: 5. Pharmacokinetic Study (PK) Analysis
Pharmacokinetic analyses after single intravenous (i.v.) and two different peroral (p.o.) administrations were performed for the test compounds. 240 grams (±10 gram) male SD rats were catheterized and used in the study. The vehicle, Solutol HS-15/0.9% saline (5:95), was added to give a final concentration of 0.33 mg/ml of the compounds for i.v. application, and 0.5 or 2.0 mg/ml for p.o. applications. The volumes used for applications were 3 ml/kg i.v. and 10 ml/kg p.o. resulting in a final dose of 1 mg/kg for the intravenous dose and 5 or 20 mg/kg for the peroral doses.
Blood samples were withdrawn via the catheter at 1) predose, 5, 15, 30, 60, 120, 240, and 480 minutes for the i.v. application and 2) predose, 15, 30, 60, 120, 240, 480 and 720 minutes for the p.o. applications. Plasma was prepared by centrifugation of heparinized whole blood. Plasma samples (˜120 μl each time point, Li-Heparin, 20 IE/ml) were stored at −80° C. until HPLC-MSMS analysis.
Preparation of the Plasma Calibration Samples:
“Blank” rat plasma from untreated animals was used. Aliquots of plasma of 50 μL each were spiked with Internal Standard (ISTD) and with known amounts test compounds in order to obtain 11 plasma calibration samples in the range 0.25-4000 ng/mL.
Preparation of Plasma Samples:
To 50 μL of sample from treated animals 20 μL of internal standard were added. After mixing with 200 μL of acetonitrile, 2% HCOOH were added and each sample was vortexed for several seconds. Precipitated material was removed by centrifugation for 10 min (13200 rpm), the supernatant removed and dried under a constant flow of N2 (Porvair, MiniVap). To reconstitute the dried samples, 200 μL of [DMSO/acetonitrile/H2O, 4/4/2 (v/v/v)+2% HCOOH] were added and the sample was shaken for at least 5 minutes.
LC-MSMS Analysis of Samples:
Reconstituted samples were analysed by HPLC/MSMS on a reverse phase analytical column (BEH C18, 100×2.1 mm, 1.7 μm, Waters). Mobile phase A: H2O/acetonitrile (95:5, v:v) 0.1% formic acid, mobile phase B: Acetonitrile/H2O (95:5, v:v) 0.1% formic acid. Compounds were eluted from the column by using a gradient from 1% B to 60% B in 2.5 min.).
Pharmacokinetic Evaluation:
PK analysis was performed on mean values (generally n=3) using WinNonLin software (Version 5.3, Pharsight Corporation). The area under the curve AUC was calculated by the linear trapezoidal rule (linear interpolation, uniform weighting). AUC(t-∞) was estimated as Ct/b (b: elimination rate constant). […] the sum of AUC(0-t) and AUC(t-∞). Elimination half-life was calculated by the linear regression on at least three data points during the elimination phase. The time intervals selected for the half-life determinations were evaluated by the correlation coefficient (r^2), which should be at least above 0.85 and ideally above 0.96.
In case of i.v. administration the initial concentration at tzero was determined by extrapolation of the curve through the first two time points. Finally bioavailability after p.o. administration was calculated from the dose normalized AUC(0-∞) ration after p.o. versus i.v. administration.

[7] = from CN(CCC[C@H](NC(=O)OCc1ccccc1)C(=O)O)C(=O)c1cc(F)ccc1OC[C@@H]1C[C@@H](N)CN1C(=O)OC(C)(C)C; amide bond; FDPP; DMF; 1.0 mM
[8] = both, human, microsomes, 1 h, 10 µM
[9] = both, CD-1, mouse, microsomes, 10 µM
[10] = both, CD-1, mouse, microsomes, 1 h, 10 µM
[11] = both, CD-1, mouse, plasma, 10 µM
[12] = both, CD-1, mouse, plasma, 4 h, 10 µM
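Wherever Plasma Stability 240 min mouse [% remain.] is given: sodium citrate stabilized mouse plasma, parent compound quantified by HPLC/MS/MS relative to its peak area at time zero, run in triplicate.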
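Wherever Plasma Stability T½ [min] mouse is given: sodium citrate stabilized mouse plasma, parent compound quantified by HPLC/MS/MS relative to its peak area at time zero, run in triplicate.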

Compound | Metabolic Stability 60 min hum [% remain.] [1, 8] | Plasma Stability T½ [min] hum (in vitro [2]; human, plasma, 10 µM) | Plasma Stability 240 min hum [% remain.] (in vitro [2]; human, plasma, 4 h, 10 µM) | Metabolic Stability T½ [min] mouse [3, 9] | Metabolic Stability 60 min mouse [% remain.] [3, 10] | Metabolic Stability 60 min (rat) [% remain.] [4] | Metabolic Stability T½ [min] (rat) [4] | Plasma Stability T½ [min] mouse (in vitro [5]; [11]) | Plasma Stability 240 min mouse [% remain.] (in vitro [5]; [12]) | half-life at 10 µM ([1]; human, microsomes) | other results
CN1CCC[C@H](NC(=O)Cc2ccccc2)C(=O)N[C@H]2CN[C@H](COc3ccc(F)cc3C1=O)C2 [Ex. 406, N-[(1S,15S,18R)-7-fluoro-11-methyl-10,16-dioxo-3-oxa-11,17,20-triazatricyclo[16.2.1.0^4,9]henicosa-4,6,8-trien-15-yl]-2-phenylacetamide] | 77 % remain. | > 240 min | 75 % remain. | > 60 min | 94 % remain. | 96 % remain. | 60 (60) min | > 240 min | 89 % remain. | – | Metabolic Stability T½ [min] hum ([1]; both, human, microsomes, 10 µM): > 60 min
CN1CCC[C@H](N)C(=O)N2C[C@@H](OCc3ccc(-c4ccccc4)cc3)C[C@H]2COc2cccc(c2)C1=O [Ex. 570, (4S,65,10S)-10-amino-6-([1,1′-biphenyl]-4-ylmethoxy)-14-methyl-2-oxa-8,14-diazatricyclo[14.3.1.0^4,8]icosa-1(20),16,18-triene-9,15-dione] | – | – | – | – | – | 76 % remain. | 60 (60) min | – | – | – | Metabolic Stability 60 min hum [% remain.] ([1]; human microsomes, 60 min): 20 % remain.; Metabolic Stability T½ [min] hum ([1]; human, microsomes): 13 min; Plasma Stability 240 min hum [% remain.] (in vitro [2]; human plasma, 240 min): 92 % remain.; Plasma Stability T½ [min] hum (in vitro [2]; human, plasma): > 240 min; Metabolic Stability 60 min mouse [% remain.] ([3]; mouse microsomes, 60 min): 69 % remain.; Metabolic Stability T½ [min] mouse ([3]; mouse, microsomes): > 60 min; Plasma Stability 240 min mouse [% remain.] (in vitro [5]; mouse plasma, 240 min): 100 % remain.; Plasma Stability T½ [min] mouse (in vitro [5]; mouse, plasma): > 240 min
CN1CCC[C@H](NC(=O)OCc2ccccc2)C(=O)N[C@@H]2C[C@@H](COc3ccc(F)cc3C1=O)N(C(=O)OC(C)(C)C)C2 [Ex. 403, tert-butyl (1S,15S,18R)-15-{[(benzyloxy)carbonyl]amino}-7-fluoro-11-methyl-10,16-dioxo-3-oxa-11,17,20-triazatricyclo[16.2.1.0^4,9]henicosa-4,6,8-triene-20-carboxylate] | 37 % remain. | > 240 min | 100 % remain. | – | 55 % remain. | – | – | > 240 min | 65 % remain. | 0.6 h | half-life at 10 µM ([3]; CD-1, mouse, microsomes): 0.95 h; ring closure, yield of all isomers [7]: 73%

Continued, in another order:

Metabolic Stability 60 min hum [% remain.] [1, 8] | Plasma Stability T½ [min] hum (in vitro [2]; human, plasma, 10 µM) | Plasma Stability 240 min hum [% remain.] (in vitro [2]; human, plasma, 4 h, 10 µM) | Metabolic Stability T½ [min] mouse [3, 9] | Metabolic Stability 60 min mouse [% remain.] [3, 10] | Metabolic Stability 60 min (rat) [% remain.] [4] | Metabolic Stability T½ [min] (rat) [4] | Plasma Stability T½ [min] mouse (in vitro [5]; [11]) | Plasma Stability 240 min mouse [% remain.] (in vitro [5]; [12]) | half-life at 10 µM ([1]; human, microsomes) | Compound | other results
1 % remain. | > 240 min | 88 % remain. | – | 4 % remain. | 32 % remain. | – | > 240 min | 81 % remain. | 0.133 h | CN1CCC[C@H](NCC(C)(C)C)C(=O)N2C[C@@H](Oc3ccccc3)C[C@H]2COc2cccc(c2)C1=O [Ex. 563, (4S,6S,10S)-14-methyl-10-(neopentylamino)-6-phenoxy-2-oxa-8,14-diazatricyclo[14.3.1.0^4,8]icosa-1(20),16,18-triene-9,15-dione] | half-life at 10 µM ([3]; CD-1, mouse, microsomes): 0.2 h; half-life at 10 µM [4]: 31 min
42 % remain. | > 240 min | 99 % remain. | > 60 min | 79 % remain. | 53 % remain. | – | > 240 min | 100 % remain. | 0.65 h | CN1CCC[C@H](N)C(=O)N2C[C@@H](Oc3ccccc3)C[C@H]2COc2cccc(c2)C1=O [Ex. 561, (4S,6S,10S)-10-amino-14-methyl-6-phenoxy-2-oxa-8,14-diazatricyclo[14.3.1.0^4,8]icosa-1(20),16,18-triene-9,15-dione] | Cmax ([6]; male, SD, plasma, iv, 1 mg/kg): 184 ng/mL; Tmax ([6]; male, SD, plasma, iv, 1 mg/kg): 0.08 h; C0 ([6]; male, SD, plasma, iv, 1 mg/kg, extrapolated to tzero): 240 ng/mL; half-life ([6]; male, SD, plasma, iv, 1 mg/kg): 2.11 h; Cmax ([6]; male, SD, plasma, po, 5 mg/kg): 67 ng/mL; Tmax ([6]; male, SD, plasma, po, 5 mg/kg): 0.5 h; bioavailability ([6]; male, SD, plasma, po, 5 mg/kg): 10.9%; half-life ([6]; male, SD, plasma, po, 5 mg/kg): 3 h; Cmax ([6]; male, SD, plasma, po, 20 mg/kg): 248 ng/mL; Tmax ([6]; male, SD, plasma, po, 20 mg/kg): 0.25 h; bioavailability ([6]; male, SD, plasma, po, 20 mg/kg): 16.8%; half-life ([6]; male, SD, plasma, po, 20 mg/kg): 2.71 h; AUC(t-∞) dose normalized ([6]; iv, 1 mg/kg): 219.89 kg·ng·h/mL/mg; Cmax dose normalized ([6]; iv, 1 mg/kg): 183.67 kg·ng/mL/mg; V (terminal) ([6]; iv, 1 mg/kg): 13.8314 L/kg; AUC(t-∞) dose normalized ([6]; po, 5 mg/kg): 24.00 kg·ng·h/mL/mg; Cmax dose normalized ([6]; po, 5 mg/kg): 13.40 kg·ng/mL/mg; AUC(t-∞) dose normalized ([6]; po, 20 mg/kg): 36.88 kg·ng·h/mL/mg; Cmax dose normalized ([6]; po, 20 mg/kg): 12.40 kg·ng/mL/mg; half-life at 10 µM [4]: 56 min
49 % remain. | > 240 min | 85 % remain. | > 60 min | 54 % remain. | 92 % remain. | 60 (60) min | > 240 min | 100 % remain. | 0.9 h | CO[C@H]1C[C@H]2COc3cccc(c3)C(=O)N(C)CCC[C@H](NC(=O)CC(C)(C)C)C(=O)N2C1 [Ex. 572, N-[(4S,6S,10S)-6-methoxy-14-methyl-9,15-dioxo-2-oxa-8,14-diazatricyclo[14.3.1.0^4,8]icosa-1(20),16,18-trien-10-yl]-3,3-dimethylbutanamide] | –
94 % remain. | > 240 min | 91 % remain. | > 60 min | 93 % remain. | 92 % remain. | 60 (60) min | > 240 min | 95 % remain. | – | CN1CCC[C@H](NC(=O)Cc2ccccc2)C(=O)N2C[C@@H](O)C[C@H]2COc2cccc(c2)C1=O [Ex. 574, N-[(4S,6S,10S)-6-hydroxy-14-methyl-9,15-dioxo-2-oxa-8,14-diazatricyclo[14.3.1.0^4,8]icosa-1(20),16,18-trien-10-yl]-2-phenylacetamide] | Metabolic Stability T½ [min] hum ([1]; both, human, microsomes, 10 µM): > 60 min

Source: US9512139B2, “Conformationally constrained, fully synthetic macrocyclic compounds” (POLYPHOR AG, priority 2009, dated 2016)
